The text below walks through data of US20100087516A1, “ANTIBACTERIAL MACROLACTIN A THAT BACILLUS POLYFERMENTICUS KJS-2 PRODUCED IN” (priority 2007, published 2010).

Converted amounts (≈) assume the structure as drawn. Like-named read-outs stand apart in the source and are kept apart here.

In experiment [1] the test system is 13 MRSA strains, clinically isolated. Put plainly: Minimal inhibitory concentration (MIC>90) in MH II medium. Format: cell-based, methicillin-resistant Staphylococcus aureus. The settings on record: for MIC: Staphylococcus aureus, MRSA. How it is done: (§1) The MIC (minimal inhibitory concentration) against VRE and MRSA was measured to test antibiotic activity of Macrolactin A produced by Bacillus polyfermenticus KJS-2, which is the strain of the present invention, against the two strains. The strains used for the experiment were 11 VRE strains and 13 MRSA strains, which were clinically isolated. Each strain used for the experiment was cultured in MH II medium at 200 rpm for 6 hours at 37° C., the absorbance of the medium measured at OD600nm using a UV detector, and then 1 ml aliquot of the medium was spread over MH II agar medium and incubated for 16 hours at 37° C. The number of colonies formed on the agar medium after 16 hours of incubation was counted. Each strain used for experiment was cultured in MH II medium at 200 rpm for 6 hours at 37° C., and the absorbance of the medium was measured at OD600nm using a UV detector. The number of cells were calculated based on the ratio of the number of colonies to the absorbance of the medium, and measured by the above process. Each culture medium was diluted to the final cell concentration of 0.25*10^7 cfu/ml and Macrolactin A was dissolved in the solvent DMSO, while ampicillin, teycoplanin, vancomycin and methillin were dissolved in water. To measure the MIC of Macrolactin A or of the four antibiotics, the mixture of the materials listed in Table 5 and Macrolactin A or the mixture of the materials listed in Table 6 and each of the four antibiotics, respectively in a 500 μl eppendorff tub, was incubated at 200 rpm for 16 hours at 37° C., and then absorbance was measured by a UV/Visible Light detector at 600 nm using a Fluorescence Multi-Detection Reader.

The subject of experiment [2] is 11 VRE strains, clinically isolated. Described as above. Format: cell-based, vancomycin-resistant enterococci. Particulars: for MIC: Enterococcus, VRE. How it is done:
as §1

The test system of experiment [3] is methicillin-resistant Staphylococcus aureu (MRSA). Particulars: cited from earlier work.
In another experiment the test system is Burkholderia cepacia. The settings on record: cited from earlier work.
Experiment [4] concerns vancomycin-resistant enterococci (VRE). Particulars: cited from earlier work.
The next experiment relates to VRE5. Put plainly: Bioassay at a gradient of concentration on TSB agar medium. It counts as cell-based, vancomycin-resistant enterococci. Particulars: solution 5 mg/ml in H2O.

For `CC1(C)S[C@@H]2[C@H](NC(=O)[C@H](N)c3ccccc3)C(=O)N2[C@H]1C(=O)O` [Ampicillin], the minimal inhibitory concentration (MIC) was determined as 212 µg/mL (≈ 605 µM) in experiment [1] (Average of the 13 MRSA strains, read-out: average MIC>90); 250 µg/mL (≈ 715 µM) in experiment [1] (MRSA1, read-out: MIC>90); 250 µg/mL (≈ 715 µM) in experiment [1] (MRSA2, read-out: MIC>90); 250 µg/mL (≈ 715 µM) in experiment [1] (MRSA3, read-out: MIC>90); 250 µg/mL (≈ 715 µM) in experiment [1] (MRSA4, read-out: MIC>90); 250 µg/mL (≈ 715 µM) in experiment [1] (MRSA5, read-out: MIC>90). For the same molecule, the minimum inhibitory concentration (MIC) in experiment [1] (MRSA6, read-out: MIC>90) was 250 µg/mL (≈ 715 µM); in experiment [1] (MRSA7, read-out: MIC>90), 250 µg/mL (≈ 715 µM); in experiment [1] (MRSA8*, read-out: MIC>90), 125 µg/mL (≈ 358 µM); in experiment [1] (MRSA8, read-out: MIC>90), 125 µg/mL (≈ 358 µM); in experiment [1] (MRSA9, read-out: MIC>90), 125 µg/mL (≈ 358 µM); in experiment [1] (MRSA10, read-out: MIC>90) it was 250 µg/mL (≈ 715 µM). In addition, the MIC in experiment [1] (MRSA11*, read-out: MIC>90) worked out at 250 µg/mL (≈ 715 µM); in experiment [1] (MRSA11, read-out: MIC>90), 125 µg/mL (≈ 358 µM); in experiment [2] (Average of the 11 VRE strains, read-out: average MIC>90), 273 µg/mL (≈ 781 µM); in experiment [2] (VRE1, read-out: MIC>90), 250 µg/mL (≈ 715 µM); in experiment [2] (VRE2, read-out: MIC>90), 250 µg/mL (≈ 715 µM); in experiment [2] (VRE3, read-out: MIC>90), 250 µg/mL (≈ 715 µM). In addition, the MIC in experiment [2] (VRE4, read-out: MIC>90) was determined as 250 µg/mL (≈ 715 µM); in experiment [2] (VRE5, read-out: MIC>90) it was 250 µg/mL (≈ 715 µM); in experiment [2] (VRE6, read-out: MIC>90) it was 250 µg/mL (≈ 715 µM); in experiment [2] (VRE7, read-out: MIC>90), 250 µg/mL (≈ 715 µM); in experiment [2] (VRE9, read-out: MIC>90) it was 250 µg/mL (≈ 715 µM); in experiment [2] (VRE10, read-out: MIC>90), 250 µg/mL (≈ 715 µM). Besides, the MIC in experiment [2] (VRE914, read-out: MIC>90) stood at 250 µg/mL (≈ 715 µM); in experiment [2] (VRE915, read-out: MIC>90), 500 µg/mL (≈ 1430 µM).

For the molecule `CC1CCC/C=C/C=C/C(O)CC(O)C/C=C\C=C\C(OC(=O)CC(=O)O)C/C=C/C=C\C(=O)O1` (stereo not shown) [Malonyl-macrolactin A (MMA), Malonyl-macrolactin A], the “antibiotic activity against MRSA” value in experiment [3] is reported as “excellent antibiotic activity”. The “antibiotic activity against Burkholderia cepacia” value in the experiment on Burkholderia cepacia is “excellent antibiotic activity”. The “antibiotic activity against VRE” value in experiment [4] is recorded as “excellent antibiotic activity”.

For `CN[C@H](CC(C)C)C(=O)N[C@H]1C(=O)N[C@@H](CC(N)=O)C(=O)N[C@H]2C(=O)N[C@H]3C(=O)N[C@H](C(=O)N[C@H](C(=O)O)c4cc(O)cc(O)c4-c4cc3ccc4O)[C@H](O)c3ccc(c(Cl)c3)Oc3cc2cc(c3O[C@@H]2O[C@H](CO)[C@@H](O)[C@H](O)[C@H]2O[C@H]2C[C@](C)(N)[C@H](O)[C@H](C)O2)Oc2ccc(cc2Cl)[C@H]1O` [Vancomycin], the “inhibition of VRE5 on TSB agar medium” value in the experiment on VRE5 is “not inhibited”. The MIC in experiment [1] (read-out: MIC>90, MRSA1) came to 250 µg/mL (≈ 173 µM); in experiment [1] (read-out: MIC>90, MRSA2) it was 125 µg/mL (≈ 86.3 µM); in experiment [1] (read-out: MIC>90, MRSA3), 125 µg/mL (≈ 86.3 µM); in experiment [1] (read-out: MIC>90, MRSA4), 125 µg/mL (≈ 86.3 µM); in experiment [1] (read-out: MIC>90, MRSA5) it was 125 µg/mL (≈ 86.3 µM); in experiment [1] (read-out: MIC>90, MRSA6), 250 µg/mL (≈ 173 µM). The minimum inhibitory concentration (MIC) amounted to 250 µg/mL (≈ 173 µM) in experiment [1] (read-out: MIC>90, MRSA7); 125 µg/mL (≈ 86.3 µM) in experiment [1] (read-out: MIC>90, MRSA8); 125 µg/mL (≈ 86.3 µM) in experiment [1] (read-out: MIC>90, MRSA8*); 250 µg/mL (≈ 173 µM) in experiment [1] (read-out: MIC>90, MRSA9); 250 µg/mL (≈ 173 µM) in experiment [1] (read-out: MIC>90, MRSA10); 250 µg/mL (≈ 173 µM) in experiment [1] (read-out: MIC>90, MRSA11). Moreover, the minimum inhibitory concentration (MIC) in experiment [1] (read-out: MIC>90, MRSA11*) is 31.2 µg/mL (≈ 21.6 µM); in experiment [1] (read-out: average MIC>90, Average of the 13 MRSA strains), 175 µg/mL (≈ 121 µM); in experiment [2] (read-out: MIC>90, VRE1), 500 µg/mL (≈ 345 µM); in experiment [2] (read-out: MIC>90, VRE2), 500 µg/mL (≈ 345 µM); in experiment [2] (read-out: MIC>90, VRE3), 125 µg/mL (≈ 86.3 µM); in experiment [2] (read-out: MIC>90, VRE4), 250 µg/mL (≈ 173 µM). Moreover, the MIC was found to be 250 µg/mL (≈ 173 µM) in experiment [2] (read-out: MIC>90, VRE5); 250 µg/mL (≈ 173 µM) in experiment [2] (read-out: MIC>90, VRE6); 250 µg/mL (≈ 173 µM) in experiment [2] (read-out: MIC>90, VRE7); 250 µg/mL (≈ 173 µM) in experiment [2] (read-out: MIC>90, VRE9); 125 µg/mL (≈ 86.3 µM) in experiment [2] (read-out: MIC>90, VRE10); 125 µg/mL (≈ 86.3 µM) in experiment [2] (read-out: MIC>90, VRE914). Further, the minimum inhibitory concentration (MIC) in experiment [2] (read-out: MIC>90, VRE915) was found to be 250 µg/mL (≈ 173 µM); in experiment [2] (read-out: average MIC>90, Average of the 11 VRE strains) it was 261 µg/mL (≈ 180 µM).

Teicoplanin: the “average MIC>90” value in experiment [1] (Average of the 13 MRSA strains) turned out to be 104.6 µg/mL; in experiment [2] (Average of the 11 VRE strains) it was 125 µg/mL. Moreover, the “MIC>90” value came to 250 µg/mL in experiment [1] (MRSA1); 125 µg/mL in experiment [1] (MRSA2); 125 µg/mL in experiment [1] (MRSA3); 125 µg/mL in experiment [1] (MRSA4); 125 µg/mL in experiment [1] (MRSA5); 125 µg/mL in experiment [1] (MRSA6). In addition, the “MIC>90” value in experiment [1] (MRSA7) stood at 250 µg/mL; in experiment [1] (MRSA8), 62.5 µg/mL; in experiment [1] (MRSA8*), 31.25 µg/mL; in experiment [1] (MRSA9), 15.63 µg/mL; in experiment [1] (MRSA10), 31.25 µg/mL; in experiment [1] (MRSA11), 31.25 µg/mL. For the same molecule, the “MIC>90” value in experiment [1] (MRSA11*) is 62.5 µg/mL; in experiment [2] (VRE1), 250 µg/mL; in experiment [2] (VRE2), 250 µg/mL; in experiment [2] (VRE3), 62.5 µg/mL; in experiment [2] (VRE4), 125 µg/mL; in experiment [2] (VRE5), 125 µg/mL. The “MIC>90” value in experiment [2] (VRE6) worked out at 125 µg/mL; in experiment [2] (VRE7), 125 µg/mL; in experiment [2] (VRE9), 62.5 µg/mL; in experiment [2] (VRE10) it was 62.5 µg/mL; in experiment [2] (VRE914) it was 62.5 µg/mL; in experiment [2] (VRE915) it was 125 µg/mL.
